Data: US20230053540A1, “TREATMENT OF LIVER INJURY” (Massachusetts Institute of Technology, priority 2019, published 2023)

System: hepatocytes
Assay: Seq-Well scRNA-Seq of hepatocytes after APAP overdose (signature scores, DEG vs untreated)
Format: in vivo, mouse

CC(=O)Nc1ccc(O)cc1 [APAP, acetaminophen]
mt-Co2 pct.1 (APAP vs. UT): 0.157
mt-Co3 avg_logFC (APAP vs. UT): −0.9584
mt-Co3 pct.1 (APAP vs. UT): 0.198
mt-Cytb avg_logFC (APAP vs. UT): −0.8775
mt-Cytb pct.1 (APAP vs. UT): 0.971
mt-Nd1 avg_logFC (APAP vs. UT): −0.76
mt-Nd1 pct.1 (APAP vs. UT): 0.978
mt-Nd2 avg_logFC (APAP vs. UT): −0.8325
mt-Nd2 pct.1 (APAP vs. UT): 0.978
mt-Nd4 avg_logFC (APAP vs. UT): −1.116
mt-Nd4 pct.1 (APAP vs. UT): 0.942
mt-Nd5 avg_logFC (APAP vs. UT): −0.7797
mt-Nd5 pct.1 (APAP vs. UT): 0.942
mt-Rnr1 avg_logFC (APAP vs. UT): −0.3538
mt-Rnr1 pct.1 (APAP vs. UT): 1
mt-Rnr2 avg_logFC (APAP vs. UT): −0.5458
mt-Rnr2 pct.1 (APAP vs. UT): 1
n-R5-8s1 avg_logFC (APAP vs. UT): 0.6965
n-R5-8s1 pct.1 (APAP vs. UT): 0.268
1700017B05Rik avg_logFC (cluster A6 (APAP 6 hr)): 0.2894
1700017B05Rik pct.1 (cluster A6 (APAP 6 hr)): 0.255
2010003K11Rik avg_logFC (cluster A6 (APAP 6 hr)): 0.4872
2010003K11Rik pct.1 (cluster A6 (APAP 6 hr)): 0.396
Abca1 avg_logFC (cluster A6 (APAP 6 hr)): 0.5058
Abca1 pct.1 (cluster A6 (APAP 6 hr)): 0.604
Abhd2 avg_logFC (cluster A6 (APAP 6 hr)): 0.3593
Abhd2 pct.1 (cluster A6 (APAP 6 hr)): 0.37
Agpat9 avg_logFC (cluster A6 (APAP 6 hr)): 0.2968
Agpat9 pct.1 (cluster A6 (APAP 6 hr)): 0.277
Alb avg_logFC (cluster A6 (APAP 6 hr)): 0.4181
Alb pct.1 (cluster A6 (APAP 6 hr)): 1
Apoa4 avg_logFC (cluster A6 (APAP 6 hr)): 0.945
Apoa4 pct.1 (cluster A6 (APAP 6 hr)): 0.721
Apob avg_logFC (cluster A6 (APAP 6 hr)): 0.3564
Apob pct.1 (cluster A6 (APAP 6 hr)): 0.99
Apobec1 avg_logFC (cluster A6 (APAP 6 hr)): 0.2824
Apobec1 pct.1 (cluster A6 (APAP 6 hr)): 0.239
App avg_logFC (cluster A6 (APAP 6 hr)): 0.3291
App pct.1 (cluster A6 (APAP 6 hr)): 0.315
Asl avg_logFC (cluster A6 (APAP 6 hr)): 0.434
Asl pct.1 (cluster A6 (APAP 6 hr)): 0.826
B4galt5 avg_logFC (cluster A6 (APAP 6 hr)): 0.402
B4galt5 pct.1 (cluster A6 (APAP 6 hr)): 0.332
Bach1 avg_logFC (cluster A6 (APAP 6 hr)): 0.6724
Bach1 pct.1 (cluster A6 (APAP 6 hr)): 0.461
Bcl2l1 avg_logFC (cluster A6 (APAP 6 hr)): 0.6863
Bcl2l1 pct.1 (cluster A6 (APAP 6 hr)): 0.501
Btg1 avg_logFC (cluster A6 (APAP 6 hr)): 0.4265
Btg1 pct.1 (cluster A6 (APAP 6 hr)): 0.356
Btg2 avg_logFC (cluster A6 (APAP 6 hr)): 0.5388
Btg2 pct.1 (cluster A6 (APAP 6 hr)): 0.549
C1qa avg_logFC (cluster A6 (APAP 6 hr)): 0.471
C1qa pct.1 (cluster A6 (APAP 6 hr)): 0.174
C1qb avg_logFC (cluster A6 (APAP 6 hr)): 0.5946
C1qb pct.1 (cluster A6 (APAP 6 hr)): 0.234
C1qc avg_logFC (cluster A6 (APAP 6 hr)): 0.5477
C1qc pct.1 (cluster A6 (APAP 6 hr)): 0.172
C230081A13Rik avg_logFC (cluster A6 (APAP 6 hr)): 0.4148
C230081A13Rik pct.1 (cluster A6 (APAP 6 hr)): 0.279
Ccl6 avg_logFC (cluster A6 (APAP 6 hr)): 0.7552
Ccl6 pct.1 (cluster A6 (APAP 6 hr)): 0.274
Cd5l avg_logFC (cluster A6 (APAP 6 hr)): 0.5663
Cd5l pct.1 (cluster A6 (APAP 6 hr)): 0.21
Cd14 avg_logFC (cluster A6 (APAP 6 hr)): 0.3587
Cd14 pct.1 (cluster A6 (APAP 6 hr)): 0.153
Cd44 avg_logFC (cluster A6 (APAP 6 hr)): 0.2929
Cd44 pct.1 (cluster A6 (APAP 6 hr)): 0.115
Cd53 avg_logFC (cluster A6 (APAP 6 hr)): 0.2561
Cd53 pct.1 (cluster A6 (APAP 6 hr)): 0.103
Cd74 avg_logFC (cluster A6 (APAP 6 hr)): 0.4419
Cd74 pct.1 (cluster A6 (APAP 6 hr)): 0.155
Cd97 avg_logFC (cluster A6 (APAP 6 hr)): 0.3303
Cd97 pct.1 (cluster A6 (APAP 6 hr)): 0.115
Cd163 avg_logFC (cluster A6 (APAP 6 hr)): 0.4066
Cd163 pct.1 (cluster A6 (APAP 6 hr)): 0.146
Cdkn1a avg_logFC (cluster A6 (APAP 6 hr)): 1.099
Cdkn1a pct.1 (cluster A6 (APAP 6 hr)): 0.702
Cers6 avg_logFC (cluster A6 (APAP 6 hr)): 0.4774
Cers6 pct.1 (cluster A6 (APAP 6 hr)): 0.332
Ces1d avg_logFC (cluster A6 (APAP 6 hr)): 0.3854
Ces1d pct.1 (cluster A6 (APAP 6 hr)): 0.859
Cfp avg_logFC (cluster A6 (APAP 6 hr)): 0.3251
Cfp pct.1 (cluster A6 (APAP 6 hr)): 0.143
Chic2 avg_logFC (cluster A6 (APAP 6 hr)): 0.39
Chic2 pct.1 (cluster A6 (APAP 6 hr)): 0.37
Chka avg_logFC (cluster A6 (APAP 6 hr)): 1.387
Chka pct.1 (cluster A6 (APAP 6 hr)): 0.716
Cidec avg_logFC (cluster A6 (APAP 6 hr)): 0.3068
Cidec pct.1 (cluster A6 (APAP 6 hr)): 0.253
Clec4f avg_logFC (cluster A6 (APAP 6 hr)): 0.9909
Clec4f pct.1 (cluster A6 (APAP 6 hr)): 0.339
Clec4d avg_logFC (cluster A6 (APAP 6 hr)): 0.2622
Clec4d pct.1 (cluster A6 (APAP 6 hr)): 0.107
Cltc avg_logFC (cluster A6 (APAP 6 hr)): 0.6346
Cltc pct.1 (cluster A6 (APAP 6 hr)): 0.661
Creb3l2 avg_logFC (cluster A6 (APAP 6 hr)): 0.3363
Creb3l2 pct.1 (cluster A6 (APAP 6 hr)): 0.329
Ctsl avg_logFC (cluster A6 (APAP 6 hr)): 0.4384
Ctsl pct.1 (cluster A6 (APAP 6 hr)): 0.878
Ctss avg_logFC (cluster A6 (APAP 6 hr)): 0.7031
Ctss pct.1 (cluster A6 (APAP 6 hr)): 0.212
